Experiment [1] concerns K pneumoniae (NDM). Particulars: 0.01 mM EDTA added to Solution 4, vacuum dried, 3 hours of incubation. The text has this: (§1) Example 9. […] Multiple different bacterial strains listed in Table 7 were inoculated into each of 3 wells.
Experiment [2] has as its system E cloacae (IMP). Particulars: 0.01 mM EDTA added to Solution 4, vacuum dried, 3 hours of incubation.
Text: as §1

Experiment [3] has as its system E coli 25922. The settings on record: E coli 25922, no carbapenemase; 0.01 mM EDTA added to Solution 4, vacuum dried; 3 hours of incubation.
Text: as §1

Experiment [4] relates to K pneumoniae (KPC). Particulars: 0.01 mM EDTA added to Solution 4, vacuum dried, 3 hours of incubation.
Text: as §1

Experiment [5] deals with E cloacae (NDM). The settings on record: 0.01 mM EDTA added to Solution 4, vacuum dried, 3 hours of incubation.
Text: as §1

Experiment [6] deals with M morganii (KPC). The settings on record: 0.01 mM EDTA added to Solution 4, vacuum dried, 3 hours of incubation.
Text: as §1

Experiment [7] relates to M morganii (NDM). Particulars: 0.01 mM EDTA added to Solution 4, vacuum dried, 3 hours of incubation.
Text: as §1

Experiment [8] relates to beta lactamase. Nature of the experiment: beta-lactamase inhibitor assay with nitrocefin probe. The settings on record: 4μg/mL inhibitor, 0.25 mg/mL nitrocefin, 35° C., 4 hours, absorbance 490 nm, FIG. 1. Format: cell-based. On the procedure: Example 1. Microbes were prepared by diluting colonies into saline to reach a McFarland value of 0.5, which was verified using a spectrophotometer. This was diluted 1:20 into saline and 50 μI of inoculum was added to wells of a 384-well plate. For each strain, 25 μI of solutions containing either 0.25 mg/mL nitrocefin alone (Nitro), 0.25 mg/mL nitrocefin and 4μg/mL clauvulanate (Nitro Clay), or 0.25 mg/mL nitrocefin and 4μg/mL tazobactam (Nitro Tazo) were added to duplicate wells. Inoculated plates were incubated at 35° C., shaking at 150 rpm for 4 hours. Absorbance was read at 490 nm and values shown in FIG. 1 are the absorbance in the indicated condition minus the absorbance from microbial inoculum alone without nitrocefin. A greater value indicates microbial ability to degrade nitrocefin, and thus, the presence of a beta lactamase. A reduction in absorbance value in the presence of an inhibitor indicates the beta lactamase present is sensitive to the inhibitor. […] Further, the inhibitors are both active against each of the strains with known beta lactamases.

With `O=C(O)CN(CCN(CC(=O)O)CC(=O)O)CC(=O)O` [EDTA, Ethylenediaminetetraacetic acid], the “Carba Test with EDTA” value is given as −2222.5 in experiment [1]; −1816.5 in experiment [2]; −1541.5 in experiment [3]; 3705.5 in experiment [4]; −2084.5 in experiment [5]; 1288.5 in experiment [6]. Moreover, the “Carba Test with EDTA” value in experiment [7] is recorded as −1923.5.
For `O=C(O)[C@H]1/C(=C/CO)O[C@@H]2CC(=O)N21` [clauvulanate], the “activity of inhibitor against strains with known beta lactamases (reduction in nitrocefin absorbance)” value in experiment [8] is listed as “active”.
Still for that read-out and setting: the value for `C[C@]1(Cn2ccnn2)[C@H](C(=O)O)N2C(=O)C[C@H]2S1(=O)=O` [tazobactam] was “active”.

Values taken from patent US20210010053A1, “ASSAYS FOR IMPROVING AUTOMATED ANTIMICROBIAL SUSCEPTIBILITY TESTING ACCURACY” (SELUX DIAGNOSTICS, INC., priority 2019, published 2021).
